From ChEMBL document CHEMBL1148975, “Ancistrobenomine a, the first naphthylisoquinoline oxygenated at Me-3, and related 5,1'-coupled alkaloids, from the "new" plant species ancistrocladusbenomensis” (J Nat Prod, 2004) come the findings set out here.

SMILES strings stand for the structures. Values after ≈ are worked out from the molar mass of the structure shown. Where only a bound is given, the exact number is not on record here.

In one test the test system is Plasmodium falciparum. The experiment in a line: Antiplasmodial activity against Plasmodium falciparum K1. In kind it is functional, organism-based.
For a further test, the system named is Trypanosoma cruzi. The experiment in a line: Antitrypanosomal activity against Trypanosoma cruzi. The class given is functional, organism-based.
The test system of test [1] is Trypanosoma brucei rhodesiense. As to the kind of experiment: Antitrypanosomal activity against Trypanosoma brucei rhodesiense. In kind it is functional, organism-based.
For another test, the system named is Leishmania donovani. As to the kind of experiment: Antileishmanial activity against Leishmania donovani. The class given is functional, organism-based.
The subject of the next test is L6. As to the kind of experiment: Cytotoxicity against rat L6 cells. In kind it is cell-based.

One may read the IC50 as the midpoint of a concentration-inhibition curve. For the compound `COc1cc(O)c(-c2c(C)cc(OC)c3c(O)cccc23)c2c1[C@@H](C)N(C)[C@@H](C)C2`, the concentration for half-maximal inhibition (IC50) in the test with Plasmodium falciparum is 0.51 µg/mL (≈ 1.25 µM); in the test with Trypanosoma cruzi, 36.4 µg/mL (≈ 89.3 µM); in test [1], 2.2 µg/mL (≈ 5.4 µM); with Leishmania donovani, 18.8 µg/mL (≈ 46.1 µM). Also, the MIC against L6 amounted to 15.5 µg/mL (≈ 38 µM).
On to `COc1cccc2c(-c3c(O)cc(OC)c4c(C)nc(CO)cc34)c(C)cc(O)c12` [6-O-DEMETHYLANCISTROBENOMINE A], for which the IC50 is 2.18 µg/mL (≈ 5.38 µM) with Plasmodium falciparum, 23.4 µg/mL (≈ 57.7 µM) with Trypanosoma cruzi, 14.7 µg/mL (≈ 36.3 µM) in test [1] and greater than 30 µg/mL in the test with Leishmania donovani. For the same compound, the MIC in the test on L6 was determined as 59.9 µg/mL (≈ 148 µM).
`COc1cc(OC)c2c(C)nc(CO)cc2c1-c1c(C)cc(O)c2c(OC)cccc12` [ANCISTROBENOMINE A]: the IC50 in the test on Plasmodium falciparum was 0.76 µg/mL (≈ 1.81 µM); in the test on Trypanosoma cruzi, 4.8 µg/mL (≈ 11.4 µM); in test [1], 1.3 µg/mL (≈ 3.1 µM); in the test with Leishmania donovani it was greater than 10 µg/mL. This compound also had an MIC against L6 of 12.3 µg/mL (≈ 29.3 µM).
Take `Nc1nc(N)nc(Nc2ccc([As]3SCC(CO)S3)cc2)n1` (stereo unspecified) [MELARSOPROL]: the IC50 in test [1] stood at 0.00095 µg/mL.
